Experimental data from patent US8440660B2 (Santen Pharmaceutical Co., Ltd., priority 2006, dated 2013).

Target: T1, Glucocorticoid Receptor (GR) (Homo sapiens, UniProt P04150)
T1 construct: purchased Invitrogen P2816
T1 sequence (P04150 1-777): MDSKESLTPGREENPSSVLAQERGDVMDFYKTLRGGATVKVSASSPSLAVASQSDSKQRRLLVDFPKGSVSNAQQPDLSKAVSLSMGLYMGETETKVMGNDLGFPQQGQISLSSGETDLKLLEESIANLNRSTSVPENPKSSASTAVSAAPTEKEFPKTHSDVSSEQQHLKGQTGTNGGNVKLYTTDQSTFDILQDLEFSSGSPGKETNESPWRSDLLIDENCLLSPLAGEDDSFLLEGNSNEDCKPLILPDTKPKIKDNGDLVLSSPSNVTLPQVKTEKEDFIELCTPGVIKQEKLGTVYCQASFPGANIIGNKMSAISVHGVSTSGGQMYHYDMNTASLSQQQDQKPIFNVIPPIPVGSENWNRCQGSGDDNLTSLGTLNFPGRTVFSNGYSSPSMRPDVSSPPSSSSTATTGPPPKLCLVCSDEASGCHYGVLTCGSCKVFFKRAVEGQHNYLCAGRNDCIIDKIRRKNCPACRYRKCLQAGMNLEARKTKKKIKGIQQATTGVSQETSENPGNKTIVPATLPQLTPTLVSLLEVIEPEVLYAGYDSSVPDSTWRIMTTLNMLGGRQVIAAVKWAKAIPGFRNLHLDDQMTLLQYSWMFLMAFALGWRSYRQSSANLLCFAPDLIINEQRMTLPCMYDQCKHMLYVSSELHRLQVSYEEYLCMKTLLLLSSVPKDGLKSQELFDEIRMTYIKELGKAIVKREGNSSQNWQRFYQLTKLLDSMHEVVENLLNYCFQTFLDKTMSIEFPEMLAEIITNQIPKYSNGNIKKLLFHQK
Test: GR receptor competitor assay by fluorescence polarization (Invitrogen GR competitor assay kit, cat No. P2816)
Details: 20 μM test compound solution, 10 μL per well plus 5 μL 4×GS1 and 5 μL 4×GR solution; recombinant human GR; 2 to 4 hours at room temperature; a ratio of 100% or more is indicated by 100%; read-out: GR Binding ratio (%)
Method: A detailed explanation of this matter will be described in the section of “Pharmacological Test” in Examples described below. In order to find the usefulness of the present compound as a pharmaceutical, a glucocorticoid receptor competitor assay was carried out by a fluorescence polarization method by using a glucocorticoid receptor competitor assay kit (manufactured by Invitrogen, cat No P2816) to study the glucocorticoid receptor binding activity of the present compound.
1. Evaluation Test for Binding Activity to Glucocorticoid Receptor (Hereinafter Referred to as “GR”)
In order to evaluate a binding activity to GR, a receptor competitor assay was carried out by a fluorescence polarization method. In the assay, a GR competitor assay kit (manufactured by Invitrogen, cat No. P2816) was used, and a procedure was carried out according to the protocol attached to the kit. Hereinafter, the specific method will be described.
(Preparation of Reagents)
GR screening buffer: A buffer containing 10 mM potassium phosphate (pH 7.4), 20 mM sodium molybdate (Na2MoO4), 0.1 mM ethylene diamine tetraacetic acid (EDTA), 5 mM dithiothreitol (DTT), 0.1 mM stabilizing peptide and 2% dimethylsulfoxide was prepared.
4×GS1 solution: Fluormone™ GS1, which is a fluorescent glucocorticoid ligand, was diluted with GR screening buffer, whereby a 4 nM solution was prepared.
4×GR solution: Recombinant human GR was diluted with GR screening buffer, whereby a 16 nM solution was prepared.
(Preparation of Test Compound Solution)
After a test compound was dissolved in dimethylsulfoxide, the resulting solution was diluted with GR screening buffer, whereby a 20 μM test compound solution was prepared.
(Test Method and Measurement Method)
1) The test compound solution was added in an amount of 10 μL into each well of a 384-well plate, and then, 4×GS1 solution and 4×GR solution were added in an amount of 5 μL into each well, respectively.
2) The plate was incubated in a dark place at room temperature for 2 to 4 hours.
3) By using a multimode plate reader, Analyst™ HT (manufactured by LJL Biosystems), fluorescence polarization of each well was measured. As the blank, a well containing GR screening buffer in place of the test compound and 4×GS1 solution was used.
4) The same procedure as that in the above 1) to 3) was carried out except that GR screening buffer was used in place of the test compound solution, and the obtained result was taken as the negative control.
5) The same procedure as that in the above 1) to 3) was carried out except that 2 mM dexamethasone was used in place of the test compound solution, and the obtained result was taken as the positive control.
(Calculation Equation of GR Binding Ratio)
A GR binding ratio (%) was calculated from the following equation. GR binding ratio (%)=100×[1−(fluorescence polarization of test compound solution−fluorescence polarization of positive control solution)/(fluorescence polarization of negative control solution−fluorescence polarization of positive control solution)] (Test Results and Discussion)

SMILES	inhibition at 10 µM [%]
COc1cc(OC(=O)c2ccoc2)ccc1-c1ccc2c(c1COc1cc(F)ccc1C)C(C)=CC(C)(C)N2 [Compound 1-34, 5-(5-Fluoro-2-methylphenoxymethyl)-6-[4-(furan-3-ylcarbonyloxy)-2-methoxyphenyl]-2,2,4-trimethyl-1,2-dihydroquinoline]	100
COc1ccccc1C(=O)Oc1ccc(-c2ccc3c(c2COc2cc(F)ccc2C)C(C)=CC(C)(C)N3)c(OC)c1 [Compound 1-8, 5-(5-Fluoro-2-methylphenoxymethyl)-6-[2-methoxy-4-(2-methoxybenzoyloxy)phenyl]-2,2,4-trimethyl-1,2-dihydroquinoline]	100
COc1cc(OC(=O)c2occc2C)ccc1-c1ccc2c(c1COc1cc(F)ccc1C)C(C)=CC(C)(C)N2 [Compound 1-71, 5-(5-Fluoro-2-methylphenoxymethyl)-6-[2-methoxy-4-(3-methylfuran-2-ylcarbonyloxy)phenyl]-2,2,4-trimethyl-1,2-dihydroquinoline]	100
COc1cc(OC(=O)c2ccc(C)nc2)ccc1-c1ccc2c(c1COc1cc(F)ccc1C)C(C)=CC(C)(C)N2 [Compound 1-69, 5-(5-Fluoro-2-methylphenoxymethyl)-6-[2-methoxy-4-(6-methylpyridin-3-ylcarbonyloxy)phenyl]-2,2,4-trimethyl-1,2-dihydroquinoline]	100
COc1cc(OC(=O)c2cccs2)ccc1-c1ccc2c(c1COc1cc(F)ccc1C)C(C)=CC(C)(C)N2 [Compound 1-31, 5-(5-Fluoro-2-methylphenoxymethyl)-6-[2-methoxy-4-(thiophen-2-ylcarbonyloxy)phenyl]-2,2,4-trimethyl-1,2-dihydroquinoline]	100
CCCCS(=O)(=O)Oc1ccc(-c2ccc3c(c2COc2cc(F)ccc2C)C(C)=CC(C)(C)N3)c(OC)c1 [Compound 4-14, 6-(4-Butylsulfonyloxy-2-methoxyphenyl)-5-(5-fluoro-2-methylphenoxymethyl)-2,2,4-trimethyl-1,2-dihydroquinoline]	90
COc1cc(OC(=O)c2ccoc2)ccc1-c1ccc2c(c1COc1cc([N+](=O)[O-])ccc1C)C(C)=CC(C)(C)N2 [Compound 1-121, 6-[4-(Furan-3-ylcarbonyloxy)-2-methoxyphenyl]-5-(2-methyl-5-nitrophenoxymethyl)-2,2,4-trimethyl-1,2-dihydroquinoline]	100
COc1ccc(OC(=O)c2ccncc2)cc1-c1ccc2c(c1COc1cc(F)ccc1C)C(C)=CC(C)(C)N2 [Compound 1-45, 5-(5-Fluoro-2-methylphenoxymethyl)-6-[2-methoxy-5-(pyridin-4-ylcarbonyloxy)phenyl]-2,2,4-trimethyl-1,2-dihydroquinoline]	95
COc1cc(OC(=O)c2ccncc2)ccc1-c1ccc2c(c1COc1cc(F)ccc1C)C(C)=CC(C)(C)N2 [Compound 1-43, 5-(5-Fluoro-2-methylphenoxymethyl)-6-[2-methoxy-4-(pyridin-4-ylcarbonyloxy)phenyl]-2,2,4-trimethyl-1,2-dihydroquinoline]	100
COc1ccc(NC(=O)Oc2ccc(-c3ccc4c(c3COc3cc(F)ccc3C)C(C)=CC(C)(C)N4)c(OC)c2)cc1 [Compound 6-13, 5-(5-Fluoro-2-methylphenoxymethyl)-6-[2-methoxy-4-(4-methoxyphenylaminocarbonyloxy)phenyl]-2,2,4-trimethyl-1,2-dihydroquinoline]	100
COc1cc(OC(=O)c2ccccc2F)ccc1-c1ccc2c(c1COc1cc(F)ccc1C)C(C)=CC(C)(C)N2 [Compound 1-59, 6-[4-(2-Fluorobenzoyloxy)-2-methoxyphenyl]-5-(5-fluoro-2-methylphenoxymethyl)-2,2,4-trimethyl-1,2-dihydroquinoline]	100
COc1cc(OC(=O)NC(C)C)ccc1-c1ccc2c(c1COc1cc(F)ccc1C)C(C)=CC(C)(C)N2 [Compound 6-21, 6-(4-Isopropylaminocarbonyloxy-2-methoxyphenyl)-5-(5-fluoro-2-methylphenoxymethyl)-2,2,4-trimethyl-1,2-dihydroquinoline]	92
COc1ccc([N+](=O)[O-])cc1OCc1c(-c2ccc(OC(=O)c3ccsc3)cc2OC)ccc2c1C(C)=CC(C)(C)N2 [Compound 1-115, 5-(2-Methoxy-5-nitrophenoxymethyl)-6-[2-methoxy-4-(thiophen-3-ylcarbonyloxy)phenyl]-2,2,4-trimethyl-1,2-dihydroquinoline]	97
COc1cc(OC(=O)c2cnccc2C)ccc1-c1ccc2c(c1COc1cc(F)ccc1C)C(C)=CC(C)(C)N2 [Compound 1-70, 5-(5-Fluoro-2-methylphenoxymethyl)-6-[2-methoxy-4-(4-methylpyridin-3-ylcarbonyloxy)phenyl]-2,2,4-trimethyl-1,2-dihydroquinoline]	100

Second part, the compound after the results:

inhibition at 10 µM [%]	SMILES
100	COc1ccc([N+](=O)[O-])cc1OCc1c(-c2ccc(OS(=O)(=O)C(C)C)cc2OC)ccc2c1C(C)=CC(C)(C)N2 [Compound 4-20, 6-(4-Isopropylsulfonyloxy-2-methoxyphenyl)-5-(2-methoxy-5-nitrophenoxymethyl)-2,2,4-trimethyl-1,2-dihydroquinoline]
100	COc1cc(OS(=O)(=O)C2CC2)ccc1-c1ccc2c(c1COc1cc(F)ccc1C)C(C)=CC(C)(C)N2 [Compound 4-27, 6-(4-Cyclopropylsulfonyloxy-2-methoxyphenyl)-5-(5-fluoro-2-methylphenoxymethyl)-2,2,4-trimethyl-1,2-dihydroquinoline]
100	COc1cc(OS(=O)(=O)C(C)C)ccc1-c1ccc2c(c1COc1cc([N+](=O)[O-])ccc1C)C(C)=CC(C)(C)N2 [Compound 4-26, 6-(4-Isopropylsulfonyloxy-2-methoxyphenyl)-5-(2-methyl-5-nitrophenoxymethyl)-2,2,4-trimethyl-1,2-dihydroquinoline]
100	COc1ccc([N+](=O)[O-])cc1OCc1c(-c2ccc(OC(=O)N3CCOCC3)cc2OC)ccc2c1C(C)=CC(C)(C)N2 [Compound 6-28, 6-[2-Methoxy-4-(morpholin-4-ylcarbonyloxy)phenyl]-5-(2-methoxy-5-nitrophenoxymethyl)-2,2,4-trimethyl-1,2-dihydroquinoline]
98	COc1ccc([N+](=O)[O-])cc1OCc1c(-c2ccc(OS(=O)(=O)C3CC3)cc2OC)ccc2c1C(C)=CC(C)(C)N2 [Compound 4-19, 6-(4-Cyclopropylsulfonyloxy-2-methoxyphenyl)-5-(2-methoxy-5-nitrophenoxymethyl)-2,2,4-trimethyl-1,2-dihydroquinoline]
100	COc1cc(OS(=O)(=O)CC(C)C)ccc1-c1ccc2c(c1COc1cc(F)ccc1C)C(C)=CC(C)(C)N2 [Compound 4-28, 5-(5-Fluoro-2-methylphenoxymethyl)-6-(4-isobutylsulfonyloxy-2-methoxyphenyl)-2,2,4-trimethyl-1,2-dihydroquinoline]
